In ChEMBL document CHEMBL4651402, “Screening of ~5500 FDA-approved drugs and clinical candidates for anti-SARS-CoV-2 activity” (2021):

Test system: SARS-CoV-2
Experiment: microbe, parasite or virus in culture
Conditions: Severe acute respiratory syndrome coronavirus 2, Vero C1008, 48 h

SMILES | IC50 | IC50 (read-out: pIC50 (converted))
CC1(C(=O)O)CCC2(C)CCC3(C)C(=CC(=O)C4C5(C)CCC(O)C(C)(C)C5CCC43C)C2C1 (stereo not drawn) | > 20 µM | > 20 µM
OCC(O)Cc1ccc2c(c1)OCO2 (stereo not drawn) [SAFROLGLYCOL] | > 20 µM | > 20 µM
Cc1c(Cn2ccnc2)c2ccccc2n1CCC(=O)O [DAZMEGREL] | > 20 µM | > 20 µM
CN(C(=O)c1c(O)c2ccccc2n(C)c1=O)c1ccccc1 [ROQUINIMEX] | > 20 µM | > 20 µM
NCCc1cc[nH]n1 [BETAZOLE] | > 20 µM | > 20 µM
CCn1cc(C(=O)O)c(=O)c2ccc(-c3ccncc3)cc21 [ROSOXACIN] | > 20 µM | > 20 µM
OC(CSc1ncnc2[nH]cnc12)CN1CCN(C(c2ccc(F)cc2)c2ccc(F)cc2)CC1 (stereo not drawn) [CARSATRIN] | > 20 µM | > 20 µM
CCOCN1C2=C(C(=O)Nc3ccccc3F)C(=O)CCN2c2ccc(F)cc21 | > 20 µM | > 20 µM
Clc1ccc(C(Cn2ccnc2)OCc2ccsc2Cl)c(Cl)c1 (stereo not drawn) [TIOCONAZOLE] | > 20 µM | > 20 µM
C[C@H](CN1CCOCC1)C(C(=O)N1CCCC1)(c1ccccc1)c1ccccc1 | > 20 µM | > 20 µM
NC1CCCCC1N (stereo not drawn) | > 20 µM | > 20 µM
CNC1(c2ccccc2Cl)CCCCC1=O (stereo not drawn) [KETAMINE] | > 20 µM | > 20 µM
COCCOC(=O)C1=C(C)NC(C)=C(C(=O)OC(C)C)C1c1cccc([N+](=O)[O-])c1 (stereo not drawn) [NIMODIPINE] | > 20 µM | > 20 µM
O=C(Nc1ccc([N+](=O)[O-])cc1Cl)c1cc(Cl)ccc1O [NICLOSAMIDE] | > 20 µM | > 20 µM
CCCc1nn(C)c2c(=O)[nH]c(-c3cc(S(=O)(=O)N4CCN(C)CC4)ccc3OCC)nc12 | > 20 µM | > 20 µM
Cc1nnc2n1-c1sc(Br)cc1C(c1ccccc1Cl)=NC2 [BROTIZOLAM] | > 20 µM | > 20 µM
COc1cc(C(=S)N2CCOCC2)cc(OC)c1OC [TRITIOZINE] | > 20 µM | > 20 µM
CC(O)C(=O)Nc1c(I)c(C(=O)NC(CO)CO)c(I)c(C(=O)NC(CO)CO)c1I (stereo not drawn) | > 20 µM | > 20 µM
c1ccc2c(SC3=NCCN3)c[nH]c2c1 [TINAZOLINE] | > 20 µM | > 20 µM
Nc1nc(Cl)nc2c1ncn2[C@@H]1O[C@H](CO)[C@@H](O)[C@@H]1F [CLOFARABINE] | > 20 µM | > 20 µM
CCN(CC)CCSC(=O)C(c1ccccc1)c1ccccc1 | > 20 µM | > 20 µM
COc1ccc(OC)c(C(O)CNC(=O)CN)c1 (stereo not drawn) [MIDODRINE] | > 20 µM | > 20 µM

SMILES | IC50 | IC50 (read-out: pIC50 (converted))
Nc1ccccc1C(=O)CC(N)C(=O)O (stereo not drawn) [KYNURENINE] | > 20 µM | > 20 µM
Cc1ccc(-n2nc(C(C)(C)C)cc2NC(=O)Nc2ccc(OCCN3CCOCC3)c3ccccc23)cc1 [DORAMAPIMOD] | > 20 µM | > 20 µM
CC(C)S(=O)(=O)n1c(N)nc2ccc(/C(=N\O)c3ccccc3)cc21 [ZINVIROXIME] | > 20 µM | > 20 µM
C=CCn1c(=O)c2cnc(Nc3ccc(N4CCN(C)CC4)cc3)nc2n1-c1cccc(C(C)(C)O)n1 [ADAVOSERTIB] | > 20 µM | > 20 µM
CN(C)S(=O)(=O)c1cc2c(c(Cl)c1Cl)OC(C(=O)O)C2 (stereo not drawn) | > 20 µM | > 20 µM
O=C(Nc1ccc(Br)cc1)c1cc(Br)cc(Br)c1O [TRIBROMSALAN] | > 20 µM | > 20 µM
C[C@]12N[C@H](Cc3ccccc31)c1ccccc12 [DIZOCILPINE] | > 20 µM | > 20 µM
COc1ccc(-n2nc(CCC(=O)N(C)O)cc2-c2ccc(Cl)cc2)cc1 [TEPOXALIN] | > 20 µM | > 20 µM
COc1cc2c(Oc3ccc(NC(=O)C4(C(=O)Nc5ccc(F)cc5)CC4)cc3F)ccnc2cc1OCCCN1CCOCC1 [FORETINIB] | > 20 µM | > 20 µM
OCCc1ccccc1 [PHENYLETHYL ALCOHOL] | > 20 µM | > 20 µM
CC1(C)C2CC[C@@]1(C)C(=O)C2 | > 20 µM | > 20 µM
COc1ccc2c(c1)c(CC(=O)NC(CO)C(=O)O)c(C)n2C(=O)c1ccc(Cl)cc1 (stereo not drawn) | > 20 µM | > 20 µM
C=C[C@@H]1C[C@]1(NC(=O)[C@@H]1C[C@@H]2CN1C(=O)[C@H](C(C)(C)C)NC(=O)O[C@@H]1C[C@H]1CCCCCc1nc3ccc(OC)cc3nc1O2)C(=O)NS(=O)(=O)C1CC1 [GRAZOPREVIR ANHYDROUS] | > 20 µM | > 20 µM
COc1ccc2cc(CCC(C)=O)ccc2c1 [NABUMETONE] | > 20 µM | > 20 µM
C[C@H](Cc1cc2c(c(C(N)=O)c1)N(CCCO)CC2)NCCOc1ccccc1OCC(F)(F)F [SILODOSIN] | > 20 µM | > 20 µM
CN(C)c1ccc(O)c2c1C[C@H]1C[C@H]3[C@H](N(C)C)C(O)=C(C(N)=O)C(=O)[C@@]3(O)C(O)=C1C2=O [MINOCYCLINE] | > 20 µM | > 20 µM
Cc1cccc(Cl)c1C(=O)N[C@@H](Cc1ccc(NC(=O)c2c(Cl)cccc2Cl)cc1)C(=O)O | > 20 µM | > 20 µM
COc1ccc(-c2nc(C(F)(F)F)sc2-c2ccc(OC)cc2)cc1 [ITAZIGREL] | > 20 µM | > 20 µM
CN1N=C2CCN(C(=O)[C@@H](COCc3ccccc3)NC(=O)C(C)(C)N)C[C@@]2(Cc2ccccc2)C1=O [CAPROMORELIN] | > 20 µM | > 20 µM
CC1=C(C)C(=O)C(CCCCC#CCCCC#CCO)=C(C)C1=O [DOCEBENONE] | > 20 µM | > 20 µM
CNCCOC(c1ccccc1)c1ccccc1C (stereo not drawn) [TOFENACIN] | > 20 µM | > 20 µM
CCC12CCN(CC3CCC3)[C@@H](Cc3ccc(O)cc31)C2(C)C | > 20 µM | > 20 µM

SMILES | IC50 | IC50 (read-out: pIC50 (converted))
Nc1ccc(O)c(C(=O)O)c1 [MESALAMINE] | > 20 µM | > 20 µM
CCN(Cc1ccncc1)C(=O)C(CO)c1ccccc1 (stereo not drawn) [TROPICAMIDE] | > 20 µM | > 20 µM
CCC(COC(=O)c1cc(OC)c(OC)c(OC)c1)(c1ccccc1)N(C)C (stereo not drawn) [TRIMEBUTINE] | > 20 µM | > 20 µM
COc1ccc2c(c1)Sc1ccc(C(C)C(=O)O)cc1N2C (stereo not drawn) [PROTIZINIC ACID] | > 20 µM | > 20 µM
COc1ccc(CC2c3cc(OC)c(OC)cc3CCN2C)cc1OC (stereo not drawn) [LAUDANOSINE] | > 20 µM | > 20 µM
Cc1cc(/N=C(\Nc2nccs2)NC2CCCCC2)c2ccccc2n1 [TIMEGADINE] | > 20 µM | > 20 µM
COc1cc(/C=C/C(=O)O)cc(OC)c1OC [SINAPIC ACID METHYL ETHER] | > 20 µM | > 20 µM
CC(=O)Nc1nnc(S(N)(=O)=O)s1 [ACETAZOLAMIDE] | > 20 µM | > 20 µM
CC(C)(O)CC(=O)O [.BETA.-HYDROXYISOVALERIC ACID] | > 20 µM | > 20 µM
NS(=O)(=O)c1ccc(N2CCCCS2(=O)=O)cc1 | > 20 µM | > 20 µM
CC(C)c1cc(-c2n[nH]c(=O)n2-c2ccc3c(ccn3C)c2)c(O)cc1O [GANETESPIB] | > 20 µM | > 20 µM
CCN(C)C(=O)Oc1cccc([C@H](C)N(C)C)c1 [RIVASTIGMINE] | > 20 µM | > 20 µM
CN(C)CCOC(C)(c1ccccc1)c1ccccn1 (stereo not drawn) [DOXYLAMINE] | > 20 µM | > 20 µM
O=C(c1cc2ccccc2o1)N1CCN(Cc2ccccc2)CC1 [BEFURALINE] | > 20 µM | > 20 µM
CNC(=O)[C@@H](NC(=O)[C@H](CC(C)C)[C@H](O)C(=O)NO)C(C)(C)C | > 20 µM | > 20 µM
CCCNC(C)C(=O)Nc1ccccc1C (stereo not drawn) [PRILOCAINE] | > 20 µM | > 20 µM
Cc1ccc(/C(=C\CN2CCCC2)c2cccc(/C=C/C(=O)O)n2)cc1 [ACRIVASTINE] | > 20 µM | > 20 µM
CCCOCCn1c(=O)c(N2CCN(CCO)CC2)nc2cnc(-c3ccc(OC)nc3)cc21 [PF-03049423] | > 20 µM | > 20 µM
COC1(C)CCC2OC2(C)CCC2C1CC2(C)C (stereo not drawn) [2-METHOXY-5 (6)EPOXY-TETRAHYDROCARYOPHYLLENE] | > 20 µM | > 20 µM
COc1cc(/C=C/c2ccc(O)cc2)cc(OC)c1 [PTEROSTILBENE] | > 20 µM | > 20 µM
